Laboratory results taken from patent EP4722207A1, “OXOISOINDOLINYL-SUBSTITUTED TETRAHYDROPYRIMIDINEDIONE DERIVATIVE AND USE THEREOF” (Gluetacs Therapeutics (Shanghai) Co., Ltd., priority 2023, dated 2024).

Columns and labels:
IKZF2 = target: T1, IKZF2 (Homo sapiens, UniProt Q96SW2+Q9UKS7); experiment: Western-blot assay, substrate protein degradation in hPBMCs: IKZF2; type: cell-based; settings: for IKZF2 substrate protein remaining %: compounds at 50 nM and 500 nM, 24 hours; for substrate protein remaining % IKZF2: 24 hours of compound treatment, 50 nM and 500 nM
T1 construct: effects of the compounds of the present disclosure on the expression of target proteins in cells; endogenous in cells; host or cells: human PBMCs (hPBMCs)

Jurkat = experiment: Cell viability assay (CellTiter-Meiluncell Luminescent), tumor cell proliferation, Jurkat; settings: Homo sapiens, 96 h, read-out: inhibitory activity (IC50, nM) against tumor cells proliferation, Jurkat
GSPT1 = target: T2, GSPT1 (Homo sapiens, UniProt P15170+Q96SW2); experiment: Western-blot assay, substrate protein degradation in hPBMCs: GSPT1; type: cell-based; settings: for GSPT1 substrate protein remaining %: compounds at 50 nM and 500 nM, 24 hours; for substrate protein remaining % GSPT1: 24 hours of compound treatment, 50 nM and 500 nM
T2 construct: effects of the compounds of the present disclosure on the expression of target proteins in cells; endogenous in cells; host or cells: human PBMCs (hPBMCs)
T2 sequence (P15170 whole entry): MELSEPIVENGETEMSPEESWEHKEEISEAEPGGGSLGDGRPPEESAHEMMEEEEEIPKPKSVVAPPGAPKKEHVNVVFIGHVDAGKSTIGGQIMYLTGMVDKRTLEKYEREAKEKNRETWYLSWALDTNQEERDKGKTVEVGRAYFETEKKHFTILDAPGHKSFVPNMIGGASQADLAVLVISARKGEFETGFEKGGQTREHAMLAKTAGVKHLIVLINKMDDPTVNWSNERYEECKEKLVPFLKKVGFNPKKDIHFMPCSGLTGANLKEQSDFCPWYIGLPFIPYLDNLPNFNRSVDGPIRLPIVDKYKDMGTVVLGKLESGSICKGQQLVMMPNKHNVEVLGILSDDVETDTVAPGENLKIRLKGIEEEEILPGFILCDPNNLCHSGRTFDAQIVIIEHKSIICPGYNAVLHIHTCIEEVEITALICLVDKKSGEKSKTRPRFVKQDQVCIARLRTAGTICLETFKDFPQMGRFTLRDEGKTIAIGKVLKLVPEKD
T2 sequence (Q96SW2 whole entry): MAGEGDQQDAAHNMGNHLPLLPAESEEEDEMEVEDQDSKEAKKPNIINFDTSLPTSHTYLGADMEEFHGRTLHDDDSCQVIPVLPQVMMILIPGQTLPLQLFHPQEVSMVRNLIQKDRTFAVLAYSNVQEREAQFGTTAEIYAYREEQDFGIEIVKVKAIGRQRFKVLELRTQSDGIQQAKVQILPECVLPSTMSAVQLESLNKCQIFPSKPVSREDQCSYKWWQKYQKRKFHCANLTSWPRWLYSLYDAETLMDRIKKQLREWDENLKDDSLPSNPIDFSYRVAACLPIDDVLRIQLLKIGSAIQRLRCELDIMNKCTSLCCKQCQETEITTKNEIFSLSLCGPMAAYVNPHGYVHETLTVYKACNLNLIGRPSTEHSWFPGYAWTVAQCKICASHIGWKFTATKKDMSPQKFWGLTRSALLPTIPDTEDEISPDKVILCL
T2 sequence (Q16531 whole entry partner): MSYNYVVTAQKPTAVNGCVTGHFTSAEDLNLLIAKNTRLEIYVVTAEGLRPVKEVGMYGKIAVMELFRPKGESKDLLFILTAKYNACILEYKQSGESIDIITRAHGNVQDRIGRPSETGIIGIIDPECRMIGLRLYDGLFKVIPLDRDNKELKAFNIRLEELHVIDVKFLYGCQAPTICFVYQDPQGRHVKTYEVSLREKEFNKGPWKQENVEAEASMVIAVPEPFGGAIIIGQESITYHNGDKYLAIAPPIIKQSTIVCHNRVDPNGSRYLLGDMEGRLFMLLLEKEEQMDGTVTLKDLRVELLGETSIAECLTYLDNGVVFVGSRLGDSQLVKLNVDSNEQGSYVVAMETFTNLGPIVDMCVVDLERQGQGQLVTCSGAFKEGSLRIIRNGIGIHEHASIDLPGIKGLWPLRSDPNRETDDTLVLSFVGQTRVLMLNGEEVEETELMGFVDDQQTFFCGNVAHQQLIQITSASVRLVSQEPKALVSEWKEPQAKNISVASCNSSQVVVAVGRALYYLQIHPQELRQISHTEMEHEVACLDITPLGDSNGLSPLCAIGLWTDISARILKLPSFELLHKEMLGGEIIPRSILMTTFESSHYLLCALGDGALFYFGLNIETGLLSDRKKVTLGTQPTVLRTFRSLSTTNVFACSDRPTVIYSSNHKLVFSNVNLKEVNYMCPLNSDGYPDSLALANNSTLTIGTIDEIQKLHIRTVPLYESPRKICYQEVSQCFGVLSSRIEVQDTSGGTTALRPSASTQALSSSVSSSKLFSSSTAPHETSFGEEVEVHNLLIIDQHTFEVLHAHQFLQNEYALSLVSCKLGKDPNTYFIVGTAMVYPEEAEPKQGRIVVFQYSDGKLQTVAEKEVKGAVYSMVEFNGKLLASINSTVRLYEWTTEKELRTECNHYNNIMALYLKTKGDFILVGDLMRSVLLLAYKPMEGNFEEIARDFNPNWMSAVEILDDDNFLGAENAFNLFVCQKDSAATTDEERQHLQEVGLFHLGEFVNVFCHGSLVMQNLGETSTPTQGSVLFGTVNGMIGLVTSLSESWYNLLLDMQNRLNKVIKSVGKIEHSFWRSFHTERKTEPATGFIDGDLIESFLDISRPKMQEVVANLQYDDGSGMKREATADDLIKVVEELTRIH

MM.1S = experiment: Cell viability assay (CellTiter-Meiluncell Luminescent), tumor cell proliferation, MM.1S; settings: Homo sapiens, MM1.S, 96 h, read-out: inhibitory activity (IC50, nM) against tumor cells proliferation, MM.1S
IKZF3 = target: T3, IKZF3 (Homo sapiens, UniProt Q96SW2+Q9UKT9); experiment: Western-blot assay, substrate protein degradation in hPBMCs: IKZF3; type: cell-based; settings: for IKZF3 substrate protein remaining %: compounds at 50 nM and 500 nM, 24 hours; for substrate protein remaining % IKZF3: 24 hours of compound treatment, 50 nM and 500 nM
T3 construct: effects of the compounds of the present disclosure on the expression of target proteins in cells; endogenous in cells; host or cells: human PBMCs (hPBMCs)
T3 sequence (Q9UKT9 whole entry): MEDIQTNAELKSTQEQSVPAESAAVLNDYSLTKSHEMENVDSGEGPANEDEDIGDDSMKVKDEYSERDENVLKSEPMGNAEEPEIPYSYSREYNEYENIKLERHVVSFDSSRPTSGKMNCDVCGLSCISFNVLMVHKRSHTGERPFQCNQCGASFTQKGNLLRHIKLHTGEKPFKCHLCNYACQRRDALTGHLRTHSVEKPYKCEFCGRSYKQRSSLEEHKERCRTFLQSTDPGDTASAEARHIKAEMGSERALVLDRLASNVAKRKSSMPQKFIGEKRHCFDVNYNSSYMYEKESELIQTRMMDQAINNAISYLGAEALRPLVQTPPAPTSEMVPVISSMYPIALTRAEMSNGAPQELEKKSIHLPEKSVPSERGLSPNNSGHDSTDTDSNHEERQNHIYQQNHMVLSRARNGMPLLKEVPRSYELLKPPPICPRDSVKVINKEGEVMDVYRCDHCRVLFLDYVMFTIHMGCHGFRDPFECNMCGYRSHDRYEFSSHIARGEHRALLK
T3 sequence (Q96SW2 whole entry): as the sequence (Q96SW2 whole entry) above
T3 sequence (Q16531 whole entry partner): as the sequence (Q16531 whole entry partner) above

CK1α = target: T4, CK1α (Homo sapiens, UniProt P48729+Q96SW2); experiment: Western-blot assay, substrate protein degradation in hPBMCs: CK1α; type: cell-based; settings: for CK1α substrate protein remaining %: compounds at 50 nM and 500 nM, 24 hours; for substrate protein remaining % CK1α: 24 hours of compound treatment, 50 nM and 500 nM
T4 construct: effects of the compounds of the present disclosure on the expression of target proteins in cells; endogenous in cells; host or cells: human PBMCs (hPBMCs)
T4 sequence (P48729 whole entry): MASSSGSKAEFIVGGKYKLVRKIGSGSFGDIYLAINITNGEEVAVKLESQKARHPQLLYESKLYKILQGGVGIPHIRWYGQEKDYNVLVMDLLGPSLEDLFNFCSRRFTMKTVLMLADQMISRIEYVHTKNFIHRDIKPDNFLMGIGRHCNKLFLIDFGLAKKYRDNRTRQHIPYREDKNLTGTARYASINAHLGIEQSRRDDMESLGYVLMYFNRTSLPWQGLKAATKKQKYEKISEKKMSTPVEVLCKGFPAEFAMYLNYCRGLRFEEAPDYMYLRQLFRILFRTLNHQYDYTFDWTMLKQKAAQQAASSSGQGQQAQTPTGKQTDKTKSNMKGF
T4 sequence (Q96SW2 whole entry): as the sequence (Q96SW2 whole entry) above
T4 sequence (Q16531 whole entry partner): as the sequence (Q16531 whole entry partner) above

IKZF1 = target: T5, IKZF1 (Homo sapiens, UniProt Q13422+Q96SW2); experiment: Western-blot assay, substrate protein degradation in hPBMCs: IKZF1; type: cell-based; settings: for IKZF1 substrate protein remaining %: compounds at 50 nM and 500 nM, 24 hours; for substrate protein remaining % IKZF1: 24 hours of compound treatment, 50 nM and 500 nM
T5 construct: effects of the compounds of the present disclosure on the expression of target proteins in cells; endogenous in cells; host or cells: human PBMCs (hPBMCs)
T5 sequence (Q13422 whole entry): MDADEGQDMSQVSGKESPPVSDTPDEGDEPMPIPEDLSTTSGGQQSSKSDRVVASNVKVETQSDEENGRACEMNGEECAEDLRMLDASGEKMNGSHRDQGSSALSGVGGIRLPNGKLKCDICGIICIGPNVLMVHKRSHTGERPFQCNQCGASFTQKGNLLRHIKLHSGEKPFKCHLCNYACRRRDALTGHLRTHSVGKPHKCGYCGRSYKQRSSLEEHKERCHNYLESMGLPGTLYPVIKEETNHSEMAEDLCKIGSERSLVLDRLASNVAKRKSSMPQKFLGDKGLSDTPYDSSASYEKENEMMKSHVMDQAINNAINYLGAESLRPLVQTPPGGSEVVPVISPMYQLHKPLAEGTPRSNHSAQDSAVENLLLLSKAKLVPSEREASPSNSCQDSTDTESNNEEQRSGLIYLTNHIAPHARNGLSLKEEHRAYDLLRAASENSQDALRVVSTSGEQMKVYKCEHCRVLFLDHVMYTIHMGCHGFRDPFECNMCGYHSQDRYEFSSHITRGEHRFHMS
T5 sequence (Q96SW2 whole entry): as the sequence (Q96SW2 whole entry) above
T5 sequence (Q16531 whole entry partner): as the sequence (Q16531 whole entry partner) above

WEE1 = target: T6, WEE1 (Homo sapiens, UniProt P30291+Q96SW2); experiment: Western-blot assay, substrate protein degradation in hPBMCs: WEE1; type: cell-based; settings: for WEE1 substrate protein remaining %: compounds at 50 nM and 500 nM, 24 hours; for substrate protein remaining % WEE1: 24 hours of compound treatment, 50 nM and 500 nM
T6 construct: effects of the compounds of the present disclosure on the expression of target proteins in cells; endogenous in cells; host or cells: human PBMCs (hPBMCs)
T6 sequence (P30291 whole entry): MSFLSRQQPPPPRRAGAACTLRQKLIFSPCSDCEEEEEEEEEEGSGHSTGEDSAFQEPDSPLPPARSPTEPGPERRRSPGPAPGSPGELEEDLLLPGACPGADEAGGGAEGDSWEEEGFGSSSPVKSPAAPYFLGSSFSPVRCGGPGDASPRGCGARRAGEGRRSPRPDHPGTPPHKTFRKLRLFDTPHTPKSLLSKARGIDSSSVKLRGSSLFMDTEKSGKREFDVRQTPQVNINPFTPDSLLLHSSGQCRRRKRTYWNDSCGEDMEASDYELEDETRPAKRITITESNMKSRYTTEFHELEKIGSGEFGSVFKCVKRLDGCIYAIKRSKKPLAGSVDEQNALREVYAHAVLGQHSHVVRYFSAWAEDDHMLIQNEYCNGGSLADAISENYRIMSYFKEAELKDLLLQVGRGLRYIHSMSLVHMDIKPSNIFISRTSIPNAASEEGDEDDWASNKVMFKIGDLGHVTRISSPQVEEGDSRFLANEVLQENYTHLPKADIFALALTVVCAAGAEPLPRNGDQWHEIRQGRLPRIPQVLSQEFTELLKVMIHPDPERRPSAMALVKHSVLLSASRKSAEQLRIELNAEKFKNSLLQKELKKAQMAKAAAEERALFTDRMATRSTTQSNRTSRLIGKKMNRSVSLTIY
T6 sequence (Q96SW2 whole entry): as the sequence (Q96SW2 whole entry) above
T6 sequence (Q16531 whole entry partner): as the sequence (Q16531 whole entry partner) above

MV-4-11 = experiment: Cell viability assay (CellTiter-Meiluncell Luminescent), tumor cell proliferation, MV-4-11; settings: Homo sapiens, MV4-11, 96 h, read-out: inhibitory activity (IC50, nM) against tumor cells proliferation, MV-4-11

| SMILES | IKZF2 substrate protein remaining % (IKZF2) | IC50 (Jurkat) [nM] | GSPT1 substrate protein remaining % (GSPT1) | IC50 (MM.1S) [nM] | IKZF3 substrate protein remaining % (IKZF3) | CK1α substrate protein remaining % (CK1α) | IKZF1 substrate protein remaining % (IKZF1) | WEE1 substrate protein remaining % (WEE1) | IC50 (MV-4-11) [nM] | substrate protein remaining % IKZF2 (IKZF2) | substrate protein remaining % GSPT1 (GSPT1) | substrate protein remaining % IKZF3 (IKZF3) | substrate protein remaining % CK1α (CK1α) | substrate protein remaining % IKZF1 (IKZF1) | substrate protein remaining % WEE1 (WEE1) |
| --- | --- | --- | --- | --- | --- | --- | --- | --- | --- | --- | --- | --- | --- | --- | --- |
| O=C1CCN(N2Cc3cc(CN4CC=C(c5ccco5)CC4)ccc3C2=O)C(=O)N1 [GT-04874, 1-(5-((4-(furan-2-yl)-3,6-dihydropyridin-1(2H)-yl)methyl)-1-oxoisoindolin-2-yl)dihydropyrimidine-2,4(1H,3H)-dione] | B ("B" is defined as 80%< substrate protein remaining %≤ 100%) | 500 to 1000 | A ("A" is defined as 0% ≤ substrate protein remaining % ≤ 80%) | 100 to 300 | A ("A" is defined as 0% ≤ substrate protein remaining % ≤ 80%) | B ("B" is defined as 80%< substrate protein remaining %≤ 100%) | A ("A" is defined as 0% ≤ substrate protein remaining % ≤ 80%) | A ("A" is defined as 0% ≤ substrate protein remaining % ≤ 80%) | – | – | – | – | – | – | – |
| O=C1CCN(N2Cc3cc(CN4CCC(c5cccc(F)c5Cl)CC4)ccc3C2=O)C(=O)N1 [GT-06894, 1-(5-((4-(2-chloro-3-fluorophenyl)piperidin-1-yl)methyl)-1-oxoisoindolin-2-yl)dihydropyrimidine-2,4(1H,3H)-dione] | B ("B" is defined as 80%< substrate protein remaining %≤ 100%) | 500 to 1000 | A ("A" is defined as 0% ≤ substrate protein remaining % ≤ 80%) | – | B ("B" is defined as 80%< substrate protein remaining %≤ 100%) | B ("B" is defined as 80%< substrate protein remaining %≤ 100%) | A ("A" is defined as 0% ≤ substrate protein remaining % ≤ 80%) | B ("B" is defined as 80%< substrate protein remaining %≤ 100%) | 300 to 500 | – | – | – | – | – | – |
| O=C1CCN(N2Cc3cc(CN4CCN(C(c5cccc(F)c5)c5cccc(F)c5)CC4)ccc3C2=O)C(=O)N1 [GT-07293, 1-(5-((4-(bis(3-fluorophenyl)methyl)piperazin-1-yl)methyl)-1-oxoisoindolin-2-yl)dihydropyrimidine-2,4(1H,3H)-dione] | A ("A" is defined as 0% ≤ substrate protein remaining % ≤ 80%) | 100 to 300 | A ("A" is defined as 0% ≤ substrate protein remaining % ≤ 80%) | 100 to 300 | A ("A" is defined as 0% ≤ substrate protein remaining % ≤ 80%) | B ("B" is defined as 80%< substrate protein remaining %≤ 100%) | B ("B" is defined as 80%< substrate protein remaining %≤ 100%) | A ("A" is defined as 0% ≤ substrate protein remaining % ≤ 80%) | – | – | – | – | – | – | – |
| O=C1CCN(N2Cc3cc(CN4CC=C(c5ccnc(Cl)c5Cl)CC4)ccc3C2=O)C(=O)N1 [GT-07432, 1-(5-((2',3'-dichloro-3,6-dihydro-[4,4'-bipyridin]-1(2H)-yl)methyl)-1-oxoisoindolin-2-yl)dihydropyrimidine-2,4(1H,3H)-dione] | – | 500 to 1000 | – | 300 to 500 | – | – | – | – | – | A (0% ≤ substrate protein remaining % ≤ 80%) | A (0% ≤ substrate protein remaining % ≤ 80%) | A (0% ≤ substrate protein remaining % ≤ 80%) | A (0% ≤ substrate protein remaining % ≤ 80%) | A (0% ≤ substrate protein remaining % ≤ 80%) | A (0% ≤ substrate protein remaining % ≤ 80%) |
| O=C1CCN(N2Cc3cc(CN4CCC(c5cccs5)CC4)ccc3C2=O)C(=O)N1 [GT-07511, 1-(1-oxo-5-((4-(thiophen-2-yl)piperidin-1-yl)methyl)isoindolin-2-yl)dihydropyrimidine-2,4(1H,3H)-dione] | – | 500 to 1000 | – | 500 to 1000 | – | – | – | – | – | A (0% ≤ substrate protein remaining % ≤ 80%) | A (0% ≤ substrate protein remaining % ≤ 80%) | B (80%< substrate protein remaining %≤ 100%) | A (0% ≤ substrate protein remaining % ≤ 80%) | A (0% ≤ substrate protein remaining % ≤ 80%) | A (0% ≤ substrate protein remaining % ≤ 80%) |
| Cn1cc(C2CCN(Cc3ccc4c(c3)CN(N3CCC(=O)NC3=O)C4=O)CC2)c2ccc(F)cc21 [GT-07575, 1-(5-((4-(6-fluoro-1-methyl-1H-indol-3-yl)piperidin-1-yl)methyl)-1-oxoisoindolin-2-yl)dihydropyrimidine-2,4(1H,3H)-dione] | – | 100 to 300 | – | 100 to 300 | – | – | – | – | – | A (0% ≤ substrate protein remaining % ≤ 80%) | A (0% ≤ substrate protein remaining % ≤ 80%) | A (0% ≤ substrate protein remaining % ≤ 80%) | A (0% ≤ substrate protein remaining % ≤ 80%) | A (0% ≤ substrate protein remaining % ≤ 80%) | A (0% ≤ substrate protein remaining % ≤ 80%) |
| O=C1CCN(N2Cc3cc(CN4CC=C(c5c[nH]c6ncccc56)CC4)ccc3C2=O)C(=O)N1 [GT-07577, 1-(5-((4-(1H-pyrrolo[2,3-b]pyridin-3-yl)-3,6-dihydropyridin-1(2H)-yl)methyl)-1-oxoisoindolin-2-yl)dihydropyrimidine-2,4(1H,3H)-dione] | – | 500 to 1000 | – | 300 to 500 | – | – | – | – | – | B (80%< substrate protein remaining %≤ 100%) | A (0% ≤ substrate protein remaining % ≤ 80%) | A (0% ≤ substrate protein remaining % ≤ 80%) | A (0% ≤ substrate protein remaining % ≤ 80%) | A (0% ≤ substrate protein remaining % ≤ 80%) | A (0% ≤ substrate protein remaining % ≤ 80%) |
| O=C1CCN(N2Cc3cc(CN4CC=C(c5n[nH]c6cc(F)ccc56)CC4)ccc3C2=O)C(=O)N1 [GT-07578, 1-(5-((4-(6-fluoro-1H-indazol-3-yl)-3,6-dihydropyridin-1(2H)-yl)methyl)-1-oxoisoindolin-2-yl)dihydropyrimidine-2,4(1H,3H)-dione] | – | 50 to 100 | – | 50 to 100 | – | – | – | – | – | A (0% ≤ substrate protein remaining % ≤ 80%) | A (0% ≤ substrate protein remaining % ≤ 80%) | B (80%< substrate protein remaining %≤ 100%) | B (80%< substrate protein remaining %≤ 100%) | A (0% ≤ substrate protein remaining % ≤ 80%) | A (0% ≤ substrate protein remaining % ≤ 80%) |
| O=C1CCN(N2Cc3cc(CN4CC=C(c5cccc6c(F)cccc56)CC4)ccc3C2=O)C(=O)N1 [GT-07590, 1-(5-((4-(5-fluoronaphthalen-1-yl)-3,6-dihydropyridin-1(2H)-yl)methyl)-1-oxoisoindolin-2-yl)dihydropyrimidine-2,4(1H,3H)-dione] | – | 50 to 100 | – | 10 to 50 | – | – | – | – | – | A (0% ≤ substrate protein remaining % ≤ 80%) | A (0% ≤ substrate protein remaining % ≤ 80%) | A (0% ≤ substrate protein remaining % ≤ 80%) | B (80%< substrate protein remaining %≤ 100%) | A (0% ≤ substrate protein remaining % ≤ 80%) | A (0% ≤ substrate protein remaining % ≤ 80%) |
